Twelve compounds from patent EP0508425A1, “Bicyclic amides as inhibitors of acyl-coenzyme a: cholesterol acyl transferase” (SCHERING CORPORATION, priority 1991, dated 1992) can be followed below.

Experiment [1] deals with ACAT. As to the kind of experiment: ACAT Assay (in vitro). In kind it is biochemical. The settings on record: 10 µM test compound; rat liver microsomes. Here is the method: This assay measures the activity of ACAT by measuring the ACAT-mediated transfer of tritiated oleic acid from acyl-CoA to cholesterol to give labelled cholesterol oleate. Rat liver microsomes are used as the source of ACAT. Assays are performed in round bottom microtiterplates using a total incubation volume of 50 µL. Each incubation well receives 10 µl assay buffer (0.5M KHPO₄, 10 µM dithiothreitol, pH 7.4), 7.5 µL of 40 mg/mL BSA (Bovine Serum Albumin) and 12.5 µg of microsomal protein. The test compound (in sufficient amount to bring the final concentration to from 0.1 to 25 µM), reference compound, or vehicle control is added and the final volume brought to 47 µL. The microtiterplate is then floated on the surface of a 37°C water bath for fifteen minutes. Incubations are started by the addition of 3 µL ³H-acyl CoA (1µCi/well, final concentration of 10 µM acyl CoA). The plate is then returned to the water bath for 15 minutes. The incubations are then terminated by application of 15 µL from each incubation to individual lanes on a thin layer plate (Silica Gel GF 20 x 20 cm). Standards are applied to several lanes so that the cholesterol ester band can be identified. After drying, the plates are eluted with 90:10:1 petroleum ether:ether:HOAc. The standards are visualized via iodine vapor, and the regions corresponding to cholesterol ester are scraped into 7 mL scintillation vials. 4 mL of scintillant are added to each vial, and the radioactivity quantified. Background count is determined by the boiled controls. Full activity is determined by activity in the presence of vehicle. The percent inhibition is calculated by subtracting the background from both control and test samples, and the test value is calculated as a percentage of the control. For IC₅₀ determinations, the inhibition is plotted against drug doses on a log scale and the concentration at which 50% inhibition is obtained is determined.
On the technique in general: Microsomes from liver hold many membrane-bound enzymes, among them those of drug oxidation.

The subject of experiment [2] is Hyperlipidemic Hamster. As to the kind of experiment: In Vivo Assay of Hypolipidemic Agents Using the Hyperlipidemic Hamster. Further details: species or system Hamsters. As to conditions: oral gavage once daily, seven days, versus control. Here is the method:
In Vivo Assay of Hypolipidemic Agents Using the Hyperlipidemic Hamster
Hamsters are separated into groups of six and given a control cholesterol diet (Purina Chow #5001 containing 0.5% cholesterol) for seven days. Diet consumption is monitored to determine dietary cholesterol exposure in the face of test compounds. The animals are dosed with the test compound once daily beginning with the initiaton of diet. Dosing is by oral gavage of 0.2 mL of corn oil alone (control group) or solution (or suspension) of test compound in corn oil. All animals moribund or in poor physical condition are euthanized. After seven days, the animals are anesthetized by IM injection of ketamine and sacrificed by decapitation. Blood is collected into vacutainer tubes containing EDTA for plasma lipid analysis and the liver excised for tissue lipid analysis. Data is reported as percent reduction of lipid versus control.

SMILES strings stand for the structures.

With `COc1ccc([C@@H]2CCc3ccccc3[C@H]2NC(=O)N(c2ccccc2)c2ccccc2)cc1` (relative stereo) [Example 6, trans-N'-[2-(4'-methoxyphenyl)-1,2,3,4-tetrahydronaphthalen-1-yl]-N,N-diphenylurea], the “ACAT % Inhibition dose = 10 µM” value in experiment [1] is 97%. Further, the “% Reduction in cholesteryl esters (dose in mpk)” value (shortened to “% Reduction”) in experiment [2] (dose 50 mpk) is recorded as -16 (50) %.
The corresponding values for `O=C(N[C@@H]1c2ccccc2C[C@@H]1c1cc(Cl)c(O)c(Cl)c1)C(c1ccccc1)c1ccccc1` (relative stereo) [Example 8A, cis-N-[2-(3',5'-dichloro-4'-hydroxyphenyl)indanyl]-α-phenylbenzeneacetamide] are 99% and -14 (50) %.
`COc1ccc([C@H]2Cc3ccccc3[C@H]2NC(=O)C(c2ccccc2)c2ccccc2)cc1` (relative stereo) [Example 2, cis-N-[2-(4'-methoxyphenyl)indanyl]-α-phenylbenzeneacetamide]: in experiment [1], the “ACAT % Inhibition dose = 10 µM” value amounted to 96%. Besides, the “% Reduction” value in experiment [2] (dose 50 mpk) is -17 (50) %.
As for `Cc1cc([C@H]2Cc3ccccc3[C@H]2NC(=O)C(c2ccccc2)c2ccccc2)cc(C)c1O` (relative stereo) [Example 9A, (+)-cis-N-[2-(3',5'-dimethyl-4'-hydroxyphenyl)indanyl]-α-phenylbenzeneacetamide], the “ACAT % Inhibition dose = 10 µM” value in experiment [1] came out at 97%. Also, the “% Reduction” value in experiment [2] (dose 50 mpk) is listed as -60 (50) %.
For `COc1ccc([C@H]2CCc3ccccc3[C@H]2NC(=O)C(c2ccccc2)c2ccccc2)cc1` (relative stereo) [Example 1, cis-N-[-2-(4'-methoxyphenyl)-1,2,3,4-tetrahydronaphthalen-1-yl]-α-phenylbenzeneacetamide], the “% Reduction” value in experiment [2] (dose 50 mpk) was 0 (50) %.
Turning to `Nc1cccc([C@H]2Cc3ccccc3[C@H]2NC(=O)C(c2ccccc2)c2ccccc2)c1` (relative stereo) [Example 5A, cis-N-[2-(3'-aminophenyl)-indanyl]-α-phenylbenzeneacetamide], the “ACAT % Inhibition dose = 10 µM” value in experiment [1] is on record as 95%. Besides, the “% Reduction” value in experiment [2] (dose 10 mpk) is 0 (10) %.
Take `O=C(N[C@@H]1c2ccccc2C[C@@H]1c1ccc(O)c(Br)c1)C(c1ccccc1)c1ccccc1` (relative stereo) [Example 7, (+)-cis-N-[2-(3'-bromo-4'-hydroxyphenyl)indanyl]-α-phenylbenzeneacetamide]: in experiment [1], the “ACAT % Inhibition dose = 10 µM” value is 100%. Also, the “% Reduction” value in experiment [2] (dose 50 mpk) is reported as -40 (50) %.
Turning to `CCCCCCCC/C=C\CCCCCCCC(=O)N[C@@H]1c2ccccc2CC[C@H]1c1ccc(O)cc1` (relative stereo) [Example 4, trans-N-[2-(4'-hydroxyphenyl)-1,2,3,4-tetrahydronaphth-1-yl]oleamide], the “ACAT % Inhibition dose = 10 µM” value in experiment [1] came out at 94%. Also, in experiment [2] (dose 50 mpk), the “% Reduction” value is recorded as 0 (50) %.
With `Nc1ccc([C@@H]2Cc3ccccc3[C@H]2NC(=O)C(c2ccccc2)c2ccccc2)cc1` (relative stereo) [Example 5, trans-N-[2-(4'-aminophenyl)indanyl]-α-phenylbenzeneacetamide], in experiment [1], the “ACAT % Inhibition dose = 10 µM” value is 94%.
Turning to `O=C(N[C@@H]1c2ccccc2C[C@@H]1c1ccc(O)c(Cl)c1)C(c1ccccc1)c1ccccc1` (relative stereo) [Example 8, cis-N-[2-(3'-chloro-4'-hydroxyphenyl)-indanyl]-α-phenylbenzeneacetamide], the “ACAT % Inhibition dose = 10 µM” value in experiment [1] was 99%. The “% Reduction” value in experiment [2] (dose 50 mpk) is -40 (50) %.
On to `O=C(N[C@@H]1c2ccccc2C[C@@H]1c1ccc(O)cc1)C(c1ccccc1)c1ccccc1` (relative stereo) [Example 3, cis-N-[2-(4'-hydroxyphenyl)indanyl]-α-phenylbenzeneacetamide], for which the “ACAT % Inhibition dose = 10 µM” value in experiment [1] worked out at 99%. Besides, the “% Reduction” value in experiment [2] (dose 10 mpk) is on record as -71%; in experiment [2] (dose 25 mpk) it was -87.5%; in experiment [2] (dose 50 mpk) it was -89%.
For `Cc1cc([C@H]2Cc3ccccc3[C@H]2NC(=O)C(c2ccccc2)c2ccccc2)ccc1O` (relative stereo) [Example 9, (+)-cis-N-[2-[4'-hydroxy-3'-methylphenyl)indanyl]-α-phenylbenzeneacetamide], in experiment [1], the “ACAT % Inhibition dose = 10 µM” value is 98%. Also, the “% Reduction” value in experiment [2] (dose 50 mpk) is -66 (50) %.
